Holding throughout (format): in vivo, human
In data set [1] the test system is ESD-induced ulcer (esophageal, gastric, colorectal ESD). Here is the method:
Testing was performed in human subjects in order to determine the ability of disclosed peptides to prevent gastrointestinal obstruction. Subjects who underwent esophageal, gastric, and colorectal endoscopic submucosal dissection (ESD) by nine endoscopists participated in the testing. Subjects receiving antithrombotic therapy were included in the study, but such medications were no longer being administered prior to the procedures. Cases with perforation and coagulopathy (international normalized ratio (INR)>3) despite anticoaculation management after heparin bridge therapy (HBT) were excluded. […] After the ESD procedure, a self-assembling peptide was administered to a target area in the subject. […] For every 1 cm^2 of tumor, 1 mL of self-assembling peptide RADA16, in the form of PuraMatrix™ peptide hydrogel by 3-D Matrix, LTD. (2.5 w/v percent) was applied to the ESD-induced ulcer using a catheter immediately after the procedure. A single dose proton pump inhibitor was administered in gastric ESD cases for 8 weeks beginning the morning of the procedure. Gastric ulcer stages were evaluated by endoscopy as active, healing or scarring at 1, 4, and 8 weeks after ESDs, and application of the self-assembling peptide. The primary endpoint was the rate of post-ESD bleeding. The secondary endpoints include the transitional rate to healing and scarring stages of gastric ESD-induced ulcers. Of the 117 subjects recruited, 114 patients with 124 lesions (esophagus 18; stomach 42; colorectum 64) were enrolled for outcome analysis and […] were excluded due to perforations and […].

Data set [2] concerns gastric ESD-induced ulcers. In words: Gastric ulcer stage by endoscopy (active, healing, scarring) after ESD and peptide application. Here is the method:
After the ESD procedure, a self-assembling peptide was administered to a target area in the subject. […] For every 1 cm^2 of tumor, 1 mL of self-assembling peptide RADA16, in the form of PuraMatrix™ peptide hydrogel by 3-D Matrix, LTD. (2.5 w/v percent) was applied to the ESD-induced ulcer using a catheter immediately after the procedure. A single dose proton pump inhibitor was administered in gastric ESD cases for 8 weeks beginning the morning of the procedure. Gastric ulcer stages were evaluated by endoscopy as active, healing or scarring at 1, 4, and 8 weeks after ESDs, and application of the self-assembling peptide. The primary endpoint was the rate of post-ESD bleeding. The secondary endpoints include the transitional rate to healing and scarring stages of gastric ESD-induced ulcers.

Data set [3] concerns artificial ulcer after ESD of early-stage esophageal cancer. In words: Stenosis prevention after endoscopic resection of esophageal cancer (artificial ulcer, 4/5 circumferential spread). Here is the method:
Testing was performed on a subject having an ulcer (lesion) after an endoscopic resection of esophageal cancer. […] Endoscopic submucosal dissection was performed, which created an ulcer. […] A ⅘ circumferential spread may cause stenosis in the absence of applying a peptide solution to form a hydrogel. After confirming that there was no hemorrhaging in the artificial ulcer surface after an endoscopic resection, a catheter was passed through an endoscope, and a peptide solution such as PuraMatrix™ peptide hydrogel by 3-D Matrix, LTD. (2.5%, suitable dose (1 mL per 1 cm^2)) in a syringe was coated evenly over the ulcer surface. […] On the first week after surgery, an endoscope is used to review the area. At this time, as with the initial round, the peptide solution is coated evenly over the ulcer surface. For past cases, an endoscope was used to perform a third and fourth review of the area, in the fourth and eighth weeks, respectively, after surgery that induced stenosis, to judge the effectiveness of the peptide solution coating. […] The endoscope passage is possible in stenosis direction.

From patent US9724448B2, “Materials for gastrointestinal obstruction prevention” (3-D MATRIX, LTD., priority 2013, dated 2017) come the findings set out here.

Where two headings read alike, the source gives them in different places.

In the case of “Arg-Ala-Asp-Ala-Arg-Ala-Asp-Ala-Arg-Ala-Asp-Ala-Arg-Ala-Asp-Ala [PuraMatrix]”, the “rate of post-ESD bleeding” value in data set [1] (all lesions (2/124), 2.5 w/v percent, 1 mL per 1 cm^2, by catheter immediately after ESD) is 1.6%; in data set [1] (colorectum (1/64; 0.02% to 1.6%)) it was 1.6%; in data set [1] (esophagus) it was 0%; in data set [1] (stomach (1/43; 95% confidence interval 0.04% to 12.3%)), 2.4%. Also, the “adverse effects related with the use of the self-assembling peptide” value in data set [1] (in vivo) was “no adverse effects”. Besides, the “Transitional rate to healing stage” value in data set [2] (at 1 week after ESD, with proton pump inhibitor) came out at 98%. The “scarring stage at follow up endoscopy” value in data set [2] (at 4 weeks after ESD) worked out at 21%; in data set [2] (at 8 weeks after ESD), 97%. Moreover, the “endoscope passage in stenosis direction” value in data set [3] (4 weeks after surgery) and in data set [3] (8 weeks after surgery) was “possible” in each case. In addition, the “ulcer state by endoscope” value in data set [3] (4 weeks after surgery, 2.5%, 1 mL per 1 cm^2, coated at surgery and at first week) is listed as “scarring”. The “side effects of the endoscopic resection (delayed hemorrhaging, perforations)” value in data set [3] (one subject, esophageal ESD) is “no delayed hemorrhaging or perforations”.
